Experiments:
A[…] (Fungus) = test: Minimum Inhibitory Concentration (MIC) test; assay type: cell-based; details: Aspergillus niger (fungus)
Description: (§1) Minimum Inhibitory Concentration (MIC's) were determined and compared to a nonylphenol-glycidol based surfactant.

E[…] (Gram Negative) = test: Minimum Inhibitory Concentration (MIC) test; assay type: cell-based; details: Escheridida coli (Gram negative)
Description: as §1

[1] = test system: STAPHYLOCOCCUS AUREUS (Gram positive); test: Minimum Inhibitory Concentration (MIC) test; assay type: cell-based
Description: as §1

[2] = Surface tension (ASTM Designation D1331-56); assay type: physicochemical; details: 0.1 wt. % concentration; ASTM D1331-56
Text: The surface tensions (ASTM Designation D1331-56) of the products at 0.1 wt. % concentration were as follows: […]

[3] = Solubility in 50% sodium hydroxide solution; assay type: physicochemical
Description: A 500 ml, 3-necked round bottom flask was fitted with a mechanical stirrer, thermometer, nitrogen inlet, dropping funnel and vent. Under the nitrogen atmosphere, Armeen CD^(1), 15 g (0.075 mole) was placed in the flask and the contents heated to 138° C. Glycidol in an amount of 16.67 g (0.225 mole) was placed in the dropping funnel and glycidol addition to the Armeen CD was initiated at a rate of approximately 0.15 g/minute. Reaction temperature was maintained at 140°-152° C. and glycidol addition was completed in about 2 hours. The reaction mixture was stirred and heated at reaction temperature an additional 2 hours. The flask and its contents were then cooled and the product removed. […] This product was referred to as cocamine 3-mole glycidol adduct and its molecular weight was 422.
All three products were soluble in 50% sodium hydroxide solution.

Row | Substance | Minimum Inhibitory Concentration (A[…] (Fungus)) | Minimum Inhibitory Concentration (E[…] (Gram Negative)) | Minimum Inhibitory Concentration [1] | surface tension [2] | solubility in 50% sodium hydroxide solution [3]
1 | Armeen CD-3m glycidol amine [Example I] | 128 PPM | 256 PPM | 32 PPM | 32.3 dynes/cm | –
2 | cocamine 3-mole glycidol adduct | – | – | – | – | soluble and clear

From US5059625A, “Polyglycidol amine oxide surfactants having antimicrobial activity” (Olin Corporation, priority 1990, dated 1991)
